The values that follow come from ChEMBL document CHEMBL1152339, “Use of the in vivo hollow fiber assay in natural products anticancer drug discovery” (J Nat Prod, 2009).

Common to all, as to type: functional
In experiment [1] the test system is LNCaP. The experiment in a line: Growth inhibition of human LNCAP cells xenografted in NCr nu/nu mouse at 6.25 to 25 mg/kg, sc once daily administered from day 3 to 6 after implantation measured on day 7 by MTT-based hollow-fiber test. The following applies: route subcutaneous. On the technique in general: Xenograft models place foreign cells or tissue in a host animal.

The test system of experiment [2] is Col2. Put plainly: Growth inhibition of human Col2 cells xenografted in NCr nu/nu mouse at 6.25 to 25 mg/kg, sc once daily administered from day 3 to 6 after implantation measured on day 7 by MTT-based hollow-fiber test. The following applies: route subcutaneous.
The subject of experiment [3] is LNCaP. The experiment in a line: Growth inhibition of human LNCAP cells xenografted in ip dosed NCr nu/nu mouse administered once daily from day 3 to 6 after implantation measured on day 7 by MTT-based hollow-fiber test.
The subject of experiment [4] is KB. Put plainly: Growth inhibition of human KB cells xenografted in NCr nu/nu mouse at 6.25 to 25 mg/kg, ip once daily administered from day 3 to 6 after implantation measured on day 7 by MTT-based hollow-fiber test. As to conditions: route intraperitoneal.
In experiment [5] the test system is Col2. The experiment in a line: Growth inhibition of human Col2 cells xenografted in NCr nu/nu mouse at 6.25 to 25 mg/kg, ip once daily administered from day 3 to 6 after implantation measured on day 7 by MTT-based hollow-fiber test. As to conditions: route intraperitoneal.
The subject of experiment [6] is KB. Put plainly: Growth inhibition of human KB cells xenografted in NCr nu/nu mouse at 6.25 to 25 mg/kg, sc once daily administered from day 3 to 6 after implantation measured on day 7 by MTT-based hollow-fiber test. As to conditions: route subcutaneous.
The subject of experiment [7] is LNCaP. Put plainly: Growth inhibition of human LNCAP cells xenografted in NCr nu/nu mouse at 6.25 to 25 mg/kg, ip once daily administered from day 3 to 6 after implantation measured on day 7 by MTT-based hollow-fiber test. The following applies: route intraperitoneal.
Experiment [8] relates to Col2. The experiment in a line: Growth inhibition of human Col2 cells xenografted in ip dosed NCr nu/nu mouse administered once daily from day 3 to 6 after implantation measured on day 7 by MTT-based hollow-fiber test.
For experiment [9], the system named is Lu1. Put plainly: Growth inhibition of human Lu1 cells xenografted in NCr nu/nu mouse at 6.2 to 25 mg/kg, sc once daily administered from day 3 to 6 after implantation measured on day 7 by MTT-based hollow-fiber test. The following applies: dose mg/kg 3-6; route subcutaneous.
Experiment [10] deals with KB. The experiment in a line: Growth inhibition of human KB cells xenografted in NCr nu/nu mouse at 6.2 to 25 mg/kg, ip once daily administered from day 3 to 6 after implantation measured on day 7 by MTT-based hollow-fiber test. The following applies: route intraperitoneal.
For experiment [11], the system named is LNCaP. The experiment in a line: Growth inhibition of human LNCAP cells xenografted in NCr nu/nu mouse at 6.2 to 25 mg/kg, ip once daily administered from day 3 to 6 after implantation measured on day 7 by MTT-based hollow-fiber test. As to conditions: route intraperitoneal.
Experiment [12] has as its system LNCaP. The experiment in a line: Growth inhibition of human LNCAP cells xenografted in NCr nu/nu mouse at 6.2 to 25 mg/kg, sc once daily administered from day 3 to 6 after implantation measured on day 7 by MTT-based hollow-fiber test. The following applies: route subcutaneous.
Experiment [13] has as its system Lu1. Put plainly: Growth inhibition of human Lu1 cells xenografted in NCr nu/nu mouse at 6.2 to 25 mg/kg, ip once daily administered from day 3 to 6 after implantation measured on day 7 by MTT-based hollow-fiber test. The following applies: dose mg/kg 3-6; route intraperitoneal.
The test system of experiment [14] is Lu1. The experiment in a line: Growth inhibition of human Lu1 cells xenografted in ip dosed NCr nu/nu mouse administered once daily from day 3 to 6 after implantation measured on day 7 by MTT-based hollow-fiber test.
Experiment [15] has as its system KB. The experiment in a line: Growth inhibition of human KB cells xenografted in NCr nu/nu mouse at 6.2 to 25 mg/kg, sc once daily administered from day 3 to 6 after implantation measured on day 7 by MTT-based hollow-fiber test. The following applies: route subcutaneous.
In experiment [16] the test system is SW626. The experiment in a line: Growth inhibition of human SW626 cells xenografted in NCr nu/nu mouse at 3.75 to 30 mg/kg, sc once daily administered from day 3 to 6 after implantation measured on day 7 by MTT-based hollow-fiber test. As to conditions: dose mg/kg 3-6; route subcutaneous.
The test system of experiment [17] is KB. Put plainly: Growth inhibition of human KB cells xenografted in NCr nu/nu mouse at 3.75 to 30 mg/kg, sc once daily administered from day 3 to 6 after implantation measured on day 7 by MTT-based hollow-fiber test. As to conditions: route subcutaneous.
The subject of experiment [18] is SW626. Put plainly: Growth inhibition of human SW626 cells xenografted in NCr nu/nu mouse at 3.75 to 30 mg/kg, ip once daily administered from day 3 to 6 after implantation measured on day 7 by MTT-based hollow-fiber test. As to conditions: dose mg/kg 3-6; route intraperitoneal.
The test system of experiment [19] is KB. The experiment in a line: Growth inhibition of human KB cells xenografted in NCr nu/nu mouse at 3.75 to 30 mg/kg, ip once daily administered from day 3 to 6 after implantation measured on day 7 by MTT-based hollow-fiber test. The following applies: route intraperitoneal.
Experiment [20] deals with SW626. The experiment in a line: Growth inhibition of human SW626 cells xenografted in ip dosed NCr nu/nu mouse administered once daily from day 3 to 6 after implantation measured on day 7 by MTT-based hollow-fiber test.

Molecules are shown by their SMILES.

Turning to `CC(=O)O[C@H]1O[C@H]([C@@H]2c3cccc(O)c3C(=O)c3c(O)cc(C)cc32)[C@H](O)[C@@H](OC(=O)C=C(C)C)[C@H]1O` [ALVARADOIN G], the “growth inhibition (GI)” value with LNCaP [1] was 24%; in the experiment on Col2 [2] it was 0%; in the experiment on KB [4] it was 79%; in the experiment with Col2 [5], 84%; with KB [6], 13%; with LNCaP [7] it was 52%. Moreover, the values for the ED50 with LNCaP [3] and in the experiment on Col2 [8] were 290 nM and 1300 nM, respectively.

With `C[C@@H]1CC[C@@]2(OC1)O[C@H]1C[C@H]3[C@@H]4CC=C5C[C@@H](O[C@@H]6O[C@H](CO)[C@@H](O[C@@H]7O[C@@H](C)[C@H](O)[C@@H](O)[C@H]7O)[C@H](O)[C@H]6O[C@@H]6O[C@@H](C)[C@H](O)[C@@H](O)[C@H]6O)CC[C@]5(C)[C@H]4CC[C@]3(C)[C@H]1[C@@H]2C` [DIOSCIN], the “growth inhibition (GI)” value in the experiment with Lu1 [9] is 0%; with KB [10] it was 79%; in the experiment on LNCaP [11], 37%; in the experiment on LNCaP [12], 36%; with Lu1 [13], 25%; with KB [15], 4%. For the same compound, the ED50 in the experiment with LNCaP [3] stood at 1700 nM; in the experiment on Lu1 [14], 1200 nM.

As to `CC(=O)O[C@H]1C(=O)[C@@]2(C)[C@H]([C@H](OC(=O)c3ccccc3)[C@]3(O)C[C@H](OC(=O)[C@H](O)[C@@H](NC(=O)c4ccccc4)c4ccccc4)C(C)=C1C3(C)C)[C@]1(OC(C)=O)CO[C@@H]1C[C@@H]2O` [PACLITAXEL], the “growth inhibition (GI)” value worked out at 0% in the experiment on SW626 [16], 20% with KB [17], 98% in the experiment on SW626 [18] and 70% in the experiment with KB [19]. This compound showed an ED50 with SW626 [20] of 0.012 nM.
